{"source": "paper PMC8157947", "about": "“Peptidic boronic acids are potent cell-permeable inhibitors of the malaria parasite egress serine protease SUB1” (Proceedings of the National Academy of Sciences of the …, 2021)", "key": {"[1]": {"test_system": "P. falciparum schizonts expressing EXP2-mNeonGreen", "experiment": "Time-lapse video microscopy of egress after compound washout", "format": "cell-based, Plasmodium falciparum", "details": "10 μM, 30 min monitoring after washout"}, "P. falciparum schizonts": {"test_system": "P. falciparum schizonts", "experiment": "MitoTracker Red CMXRos viability staining", "format": "cell-based, Plasmodium falciparum", "details": "10 μM, 1 h", "protocol": "Viewing chambers for live parasite microscopic examination were constructed as previously described ([7]). All images were recorded on a Nikon Eclipse Ni light microscope fitted with a Hamamatsu C11440 digital camera and Nikon N Plan Apo λ 63×/1.45NA oil immersion objective. For time-lapse video microscopy, differential interference contrast (DIC) images were taken at 10 s intervals over 30 min while fluorescence (mNeon Green) images were taken every 2 min to prevent bleaching. Time-lapse videos were analyzed and annotated using Fiji ([44]). For viability staining using the vital mitochondrial dye MitoTracker Red CMXRos (ThermoFisher Scientific; stored as a 10 μM stock in DMSO), the dye was added (20 nM final concentration) to a suspension of schizonts pretreated for 1 h with either DMSO (control, 1% vol/vol) or compound 3j (10 μM). The schizonts were incubated with the dye for 15 min at 37 °C, then washed twice, transferred to a viewing chamber, and observed immediately by dual DIC/fluorescence microscopy."}}, "data": [{"molecule": "CC(=O)NC(C(=O)NC(C(=O)NCC(=O)NC(C)B(O)O)C(C)C)C1CCCC1", "note": "(centres unmarked) [3j]", "values": [{"measurement": "egress following washout", "setting": "[1]", "value": "no egress occurred over the course of 30 min"}, {"measurement": "viability (MitoTracker Red CMXRos incorporation)", "setting": "P. falciparum schizonts", "value": "remained viable"}]}]}
